Data as given in patent publication US8609727B2, “Dicarboxylic acid derivatives and their use” (Bayer Intellectual Property GmbH, priority 2005, dated 2013).

Columns and labels:
saphenous artery rings = test: Vasorelaxant effect in vitro (phenylephrine-contracted artery rings); type: cell-based, Rabbits; conditions: rabbit saphenous artery rings, contraction induced by phenylephrine
Description: B-1. Vasorelaxant Effect In Vitro:
Rabbits are anaesthetized and sacrificed by intravenous injection of thiopental sodium (about 50 mg/kg) and exsanguinated. The saphenous artery is removed and divided into rings 3 mm wide. The rings are mounted singly on in each case a pair of triangular hooks open at the end and made of 0.3 mm-thick special wire (Remanium®). Each ring is placed under an initial tension in 5 ml organ baths with Krebs-Henseleit solution which is at 37° C., is gassed with 95% O2/5% CO2 and has the following composition: NaCl 119 mM; KCl 4.8 mM; CaCl2×2H2O 1 mM; MgSO4×7H2O 1.4 mM; KH2PO4 1.2 mM; NaHCO3 25 mM; glucose 10 mM; bovine serum albumin 0.001%. The force of contraction is detected with Statham UC2 cells, amplified and digitized via A/D converters (DAS-1802 HC, Keithley Instruments, Munich) and recorded in parallel on chart recorders. Contractions are induced by addition of phenylephrine.
After several (generally 4) control cycles, the substance to be investigated is added in each further run in increasing dosage, and the height of the contraction achieved under the influence of the test substance is compared with the height of the contraction reached in the last preceding run. The concentration necessary to reduce the contraction reached in the preceding control by 50% is calculated from this (IC50). The standard application volume is 5 μl. The proportion of DMSO in the bath solution corresponds to 0.1%.

[1] = target: T1, Haem-containing sGC (recombinant soluble guanylate cyclase) (Rattus norvegicus, UniProt P20595); test: Stimulation of recombinant soluble guanylate cyclase (sGC) in vitro, haem-containing enzyme; type: biochemical; conditions: 0.1 μM DEA/NO, 0.0 μM Example 5
T1 construct: made in house; host or cells: Sf9 insect cells (baculovirus)
T1 sequence (P20595 1-619): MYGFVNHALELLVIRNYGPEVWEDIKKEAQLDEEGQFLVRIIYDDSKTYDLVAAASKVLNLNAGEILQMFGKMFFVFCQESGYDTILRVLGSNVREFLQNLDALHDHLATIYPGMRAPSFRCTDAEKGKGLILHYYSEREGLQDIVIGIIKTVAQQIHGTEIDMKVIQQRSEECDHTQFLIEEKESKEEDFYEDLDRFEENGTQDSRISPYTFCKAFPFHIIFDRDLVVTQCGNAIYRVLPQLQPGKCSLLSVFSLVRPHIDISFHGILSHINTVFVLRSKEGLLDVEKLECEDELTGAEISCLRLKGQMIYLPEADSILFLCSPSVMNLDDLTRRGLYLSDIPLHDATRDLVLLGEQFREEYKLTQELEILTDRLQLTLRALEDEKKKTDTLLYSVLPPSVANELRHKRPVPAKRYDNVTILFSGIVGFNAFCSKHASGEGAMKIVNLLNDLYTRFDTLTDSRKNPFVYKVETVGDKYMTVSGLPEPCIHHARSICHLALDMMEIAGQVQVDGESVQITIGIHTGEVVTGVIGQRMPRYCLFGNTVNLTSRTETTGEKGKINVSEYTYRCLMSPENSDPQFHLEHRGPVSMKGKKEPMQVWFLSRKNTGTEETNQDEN
T1 sequence (P19686 1-690 partner): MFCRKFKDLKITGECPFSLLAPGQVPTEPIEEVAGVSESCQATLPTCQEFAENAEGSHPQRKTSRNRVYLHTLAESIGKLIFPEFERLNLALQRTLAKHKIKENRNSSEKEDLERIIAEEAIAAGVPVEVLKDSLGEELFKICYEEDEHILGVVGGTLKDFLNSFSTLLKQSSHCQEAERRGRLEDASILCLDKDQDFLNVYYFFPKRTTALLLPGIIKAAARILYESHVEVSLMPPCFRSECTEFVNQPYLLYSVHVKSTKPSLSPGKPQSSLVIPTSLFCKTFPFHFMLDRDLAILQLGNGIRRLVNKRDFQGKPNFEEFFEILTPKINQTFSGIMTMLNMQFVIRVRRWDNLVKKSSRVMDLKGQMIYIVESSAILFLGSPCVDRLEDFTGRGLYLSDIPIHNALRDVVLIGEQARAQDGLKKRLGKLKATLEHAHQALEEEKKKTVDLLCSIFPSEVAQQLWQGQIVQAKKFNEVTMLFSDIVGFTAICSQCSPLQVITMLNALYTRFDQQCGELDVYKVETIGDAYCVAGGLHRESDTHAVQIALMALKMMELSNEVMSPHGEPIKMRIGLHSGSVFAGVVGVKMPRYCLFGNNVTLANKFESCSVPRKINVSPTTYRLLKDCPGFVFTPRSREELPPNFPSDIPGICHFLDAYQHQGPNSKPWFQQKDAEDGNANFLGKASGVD
Description: B-2. Stimulation of Recombinant Soluble Guanylate Cyclase (sGC) In Vitro:
Hoenicka, E. M. Becker, H. Apeler, T. Sirichoke, H. Schroeder, R. Gerzer and J.-P. Stasch, “Purified soluble guanylyl cyclase expressed in a baculovirus/Sf9 system: Stimulation by YC-1, nitric oxide, and carbon oxide”, J. Mol. Med. 77 (1999), 14-23. The haem-free guanylate cyclase is obtained by adding Tween 20 to the sample buffer (0.5% in the final concentration).
The activation of sGC by a test substance is reported as n-fold stimulation of the basal activity.

For O=C(O)c1ccc(CCC(/C=C/c2ccccc2OCc2cc(C(F)(F)F)cc(C(F)(F)F)c2)Cc2ccc(C(=O)O)cc2)cc1 (stereo not drawn) [Example 48], the IC50 (saphenous artery rings; Oryctolagus cuniculus) was 0.004 µM.
In the case of O=C(O)c1ccc(CCC(C=Cc2ccccc2OCc2ccc(-c3ccc(C(F)(F)F)cc3)cc2)Cc2ccc(C(=O)O)cc2)cc1 (stereo not drawn) [Example 10, 4-[(4E/Z)-3-(4-Carboxybenzyl)-5-(2-{[4′-(trifluoromethyl)biphenyl-4-yl]methoxy}phenyl)pent-4-en-1-yl]benzoic Acid], the IC50 (saphenous artery rings; Oryctolagus cuniculus) is reported as 0.048 µM.
In the case of O=C(O)c1ccc(CCC(/C=C/c2ccccc2OCCCC(F)(F)F)Cc2ccc(C(=O)O)cc2)cc1 (racemic) [Example 11, 4-{(4E)-3-(4-Carboxybenzyl)-5-[2-(4,4,4-trifluorobutoxy)phenyl]pent-4-en-1-yl}benzoic Acid], the IC50 (saphenous artery rings; Oryctolagus cuniculus) is reported as 0.129 µM.
In the case of O=C(O)c1ccc(CCC(/C=C/c2cc(F)ccc2OCc2ccc(C(F)(F)F)cc2)Cc2ccc(C(=O)O)cc2)cc1 (single isomer, unassigned) [Example 54, 4-[(4E)-3-(4-Carboxybenzyl)-5-(5-fluoro-2-{[4-(trifluoromethyl)benzyl]oxy}phenyl)pent-4-en-1-yl]benzoic Acid], the IC50 (saphenous artery rings; Oryctolagus cuniculus) is reported as 0.09 µM.
CC(C)(C)c1ccc(COc2ccccc2/C=C/C(CCc2ccc(C(=O)O)cc2)Cc2ccc(C(=O)O)cc2)cc1 (racemic) [Example 2, 4-[(4E)-5-{2-[(4-tert-Butylbenzyl)oxy]phenyl}-3-(4-carboxybenzyl)pent-4-en-1-yl]benzoic Acid] gave an IC50 (saphenous artery rings) of 0.00054 µM.
With O=C(O)c1ccc(CCC(/C=C/c2ccccc2OCc2ccc(CCc3ccccc3)cc2)Cc2ccc(C(=O)O)cc2)cc1 (racemic) [Example 7, 4-[(4E)-3-(4-Carboxybenzyl)-5-(2-{[4-(2-phenylethyl)benzyl]oxy}phenyl)pent-4-en-1-yl]benzoic acid] the IC50 (saphenous artery rings; Oryctolagus cuniculus) was 0.021 µM.
With O=C(O)c1ccc(CCC(/C=C/c2ccccc2OCCCCCc2ccccc2)Cc2ccc(C(=O)O)cc2)cc1 (racemic) [Example 6, 4-((4E)-3-(4-Carboxybenzyl)-5-{2-[(5-phenylpentyl)oxy]phenyl}pent-4-en-1-yl)benzoic Acid] the IC50 (saphenous artery rings) was 0.121 µM.
For O=C(O)c1ccc(CCC(/C=C/c2ccccc2OCCCCC(F)(F)F)Cc2ccc(C(=O)O)cc2)cc1 (racemic) [Example 42, 4-[(4E)-3-(4-Carboxybenzyl)-5-{2-[(5,5,5-trifluoropentyl)oxy]phenyl}pent-4-en-1-yl]benzoic Acid], the IC50 (saphenous artery rings; Oryctolagus cuniculus) was 0.019 µM.
CC(C)(C)c1ccc(COc2ccccc2/C=C/C(CCc2ccc(C(=O)O)cc2)Cc2ccc(C(=O)O)cc2)cc1 (racemic) [Example 3, 4-[(4E)-5-{2-[(4-tert-Butylbenzyl)oxy]phenyl}-3-(4-carboxybenzyl)pent-4-en-1-yl]benzoic Acid] was tested, and the IC50 (saphenous artery rings) was 0.0047 µM.
For O=C(O)c1ccc(CCC(/C=C/c2ccccc2OCc2ccc(C(F)(C(F)(F)F)C(F)(F)F)cc2)Cc2ccc(C(=O)O)cc2)cc1 (stereo not drawn) [Example 44, 4-{(4E)-3-(4-Carboxybenzyl)-5-[2-({4-[1,2,2,2-tetrafluoro-1-(trifluoromethyl)ethyl]benzyl}oxy)-phenyl]pent-4-en-1-yl}benzoic Acid], the IC50 (saphenous artery rings; Oryctolagus cuniculus) was 0.022 µM.
CCCCCOc1ccccc1/C=C/C(CCc1ccc(C(=O)O)cc1)Cc1ccc(C(=O)O)cc1 (racemic) [Example 17, 4-{(4E)-3-(4-Carboxybenzyl)-5-[2-(pentyloxy)phenyl]pent-4-en-1-yl}benzoic Acid] showed an IC50 (saphenous artery rings; Oryctolagus cuniculus) of 0.0011 µM.
O=C(O)c1ccc(CCC(/C=C/c2cc(F)ccc2OCc2ccc(C(F)(F)F)cc2)Cc2ccc(C(=O)O)cc2)cc1 (stereo not drawn) [Example 55] gave an IC50 (saphenous artery rings; Oryctolagus cuniculus) of 0.287 µM.
For O=C(O)c1ccc(CCC(/C=C/c2ccccc2OC(F)(F)c2ccc(C(F)(F)F)cc2)Cc2ccc(C(=O)O)cc2)cc1 (stereo not drawn) [Example 50], the IC50 (saphenous artery rings; Oryctolagus cuniculus) was 0.37 µM.
O=C(O)c1ccc(CCC(/C=C/c2cc(F)ccc2OCc2ccc(OC(F)(F)F)cc2)Cc2ccc(C(=O)O)cc2)cc1 (stereo not drawn) [Example 56] showed an IC50 (saphenous artery rings; Oryctolagus cuniculus) of 0.077 µM.
For CCN(CC)[N+]([O-])=NO [DEA/NO, 2-(N,N-diethylamino)diazenolate 2-oxide, reference compound], the “Stimulation (n-fold) Haem-containing sGC by DEA/NO alone” value [1] was 78.7 n-fold.
